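These data come from cells grown in 96-well plates and exposed to compound for 48 hours at five concentrations. The concentration for 50% growth inhibition is given as GI50. TGI: total growth inhibition.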

Test systems include HCC-2998 colon; SK-OV-3 ovarian; SF-295 CNS; OVCAR-3 ovarian; SK-MEL-28 melanoma; K-562 leukemia; SF-539 CNS; SK-MEL-2 melanoma; OVCAR-4 ovarian.
Holding throughout (assay): NCI tumour cell line growth inhibition, 48 h

`COC(=O)/C(C#N)=C1\CCC(O)N1` (stereo not given): the TGI in the assay with HCC-2998 colon, in the assay on SK-OV-3 ovarian, in the assay on SF-295 CNS, with OVCAR-3 ovarian, in the assay on SK-MEL-28 melanoma and in the assay with K-562 leukemia was above 100 µM in each case. In addition, the TGI in the assay on SF-539 CNS, in the assay on SK-MEL-2 melanoma and in the assay on OVCAR-4 ovarian was above 100 µM in each case.
Regarding `CN[C@@H](C)[C@H](NC)c1ccccc1`, the TGI with HCC-2998 colon, with SK-OV-3 ovarian, in the assay on SF-295 CNS, in the assay with OVCAR-3 ovarian, in the assay with SK-MEL-28 melanoma and in the assay with K-562 leukemia was above 100 µM throughout. The molecule also yielded a TGI in the assay with SF-539 CNS above 100 µM.
Regarding `CCOC(=N)CC(=O)Nc1cccc(C)c1C`, the TGI in the assay with HCC-2998 colon, with SK-OV-3 ovarian, in the assay on SF-295 CNS, with OVCAR-3 ovarian, in the assay with SK-MEL-28 melanoma and in the assay with SF-539 CNS was above 100 µM in each case. Moreover, the TGI in the assay with SK-MEL-2 melanoma and with OVCAR-4 ovarian was above 100 µM each time.
For the molecule `CC(=O)c1sc(-c2nc(C)c(C(=O)/C=C\c3ccc(/C=C\C(=O)c4sc(-c5nc(C)c(C(C)=O)s5)nc4C)cc3)s2)nc1C`, the TGI in the assay with HCC-2998 colon, in the assay on SK-OV-3 ovarian, in the assay on SF-295 CNS, with OVCAR-3 ovarian, with SK-MEL-28 melanoma and in the assay with K-562 leukemia was above 100 µM each time. Moreover, the TGI in the assay on SF-539 CNS, in the assay on SK-MEL-2 melanoma and in the assay on OVCAR-4 ovarian was above 100 µM each time.
In the case of `O=C(Cc1ccccc1)NN1C(=O)C(Cl)C1c1ccc(O)cc1` (stereo not given), the TGI in the assay with HCC-2998 colon, in the assay with SK-OV-3 ovarian, with SF-295 CNS, in the assay on OVCAR-3 ovarian, in the assay on SK-MEL-28 melanoma and with K-562 leukemia was above 100 µM throughout. The TGI with SK-MEL-2 melanoma is above 100 µM.
As to `O=c1[nH]c2cc(Cl)ccc2nc1/C(=N\O)C(O)c1ccc(Cl)cc1Cl` (stereo not given), the TGI in the assay with HCC-2998 colon, with SK-OV-3 ovarian, with SF-295 CNS, in the assay on OVCAR-3 ovarian, in the assay with SK-MEL-28 melanoma and with K-562 leukemia was above 100 µM throughout. Besides, the TGI in the assay with SF-539 CNS and in the assay with OVCAR-4 ovarian was above 100 µM in each case.
For the molecule `O=C1Nc2c(ccc(Cl)c2I)C1=O`, the TGI was 34.4 µM in the assay with HCC-2998 colon; 48.3 µM in the assay with SK-OV-3 ovarian; 36.5 µM in the assay on SF-295 CNS; 55.7 µM in the assay on OVCAR-3 ovarian; 32.7 µM in the assay with SK-MEL-28 melanoma; 73.2 µM in the assay with K-562 leukemia. In addition, the TGI was 27.7 µM in the assay with SK-MEL-2 melanoma and 31.6 µM with OVCAR-4 ovarian.
As for `Cc1cc(S(=O)(=O)N/N=C(\Sc2cc(Cl)c(C)cc2S(N)(=O)=O)c2ccc(Cl)cc2)c(Cl)cc1Cl`, the GI50 with SK-OV-3 ovarian is above 100 µM; in the assay on SF-295 CNS, above 100 µM; with OVCAR-3 ovarian, 31.1 µM; with SK-MEL-28 melanoma it was above 100 µM; in the assay with K-562 leukemia, 67.7 µM; in the assay on SF-539 CNS, 28.6 µM. Also, the GI50 in the assay with SK-MEL-2 melanoma was above 100 µM; with OVCAR-4 ovarian it was 63.1 µM. Also, the TGI was above 100 µM with SK-OV-3 ovarian; above 100 µM with SF-295 CNS; above 100 µM in the assay on OVCAR-3 ovarian; above 100 µM in the assay on SK-MEL-28 melanoma; above 100 µM with K-562 leukemia; 61.5 µM with SF-539 CNS. For the same molecule, the TGI in the assay on SK-MEL-2 melanoma and in the assay on OVCAR-4 ovarian was above 100 µM throughout.
As for `COc1ccc(C2c3cc(OC)c(OC)cc3C(Cc3ccc([N+](=O)[O-])cc3)C2c2ccc([N+](=O)[O-])cc2)cc1OC` (stereo not given), the TGI with HCC-2998 colon, with SF-295 CNS, in the assay with OVCAR-3 ovarian, in the assay on SK-MEL-28 melanoma, in the assay with K-562 leukemia and in the assay on SF-539 CNS was above 100 µM each time. Moreover, the TGI with SK-MEL-2 melanoma and with OVCAR-4 ovarian was above 100 µM throughout.
Take `Cc1cc(NS(=O)(=O)c2ccc(Nc3c4ccccc4nc4c(C(=O)NCCN(C)C)cccc34)cc2)no1`: the TGI in the assay on HCC-2998 colon was 27 µM; with SF-295 CNS it was 47.5 µM; in the assay with SK-MEL-28 melanoma, 48.8 µM; in the assay with K-562 leukemia, above 100 µM; in the assay on SF-539 CNS, 15.2 µM; in the assay with OVCAR-4 ovarian, 57.7 µM.
For `CCCCCCCCCCCCCCCCCC(=O)O[C@H](COC(=O)CCCCCCCCCCC)COC(=O)CCCCCCCCCCCCCCC`, the TGI in the assay with HCC-2998 colon, with SK-OV-3 ovarian, with SF-295 CNS, in the assay with OVCAR-3 ovarian, in the assay on SK-MEL-28 melanoma and in the assay on K-562 leukemia was above 100 µM throughout. The molecule further yielded a TGI with OVCAR-4 ovarian above 100 µM.
Consider `COc1cccc(-n2c3nc(=O)n(C)c(=O)c-3nc3ccccc32)c1`, for which the TGI is 38.9 µM in the assay on HCC-2998 colon; above 100 µM with SK-OV-3 ovarian; 29.2 µM in the assay on SF-295 CNS; 8.8 µM in the assay on OVCAR-3 ovarian; 61.4 µM in the assay with SK-MEL-28 melanoma; above 100 µM in the assay with K-562 leukemia. In addition, the TGI in the assay with SF-539 CNS stood at 27.8 µM; with SK-MEL-2 melanoma, 56 µM; in the assay with OVCAR-4 ovarian, 25.2 µM.
For `COC(=O)N/N=C(\C)C(CN1CCCCC1)C(C1=C(O)c2ccccc2OC1)c1ccccc1` (stereo not given), the TGI with SK-OV-3 ovarian, with SF-295 CNS, in the assay with OVCAR-3 ovarian, in the assay on SK-MEL-28 melanoma, in the assay on K-562 leukemia and in the assay on SF-539 CNS was above 100 µM in each case. Further, the TGI in the assay with SK-MEL-2 melanoma and in the assay with OVCAR-4 ovarian was above 100 µM each time.
With `O=C1CC2C(=O)N(Cc3ccccc3)C1C=C2S(=O)(=O)c1ccccc1` (stereo not given), the TGI in the assay on HCC-2998 colon, in the assay with SK-OV-3 ovarian, in the assay with SF-295 CNS, in the assay with OVCAR-3 ovarian, in the assay on SK-MEL-28 melanoma and in the assay on K-562 leukemia was above 100 µM throughout. Besides, the TGI with SF-539 CNS and with OVCAR-4 ovarian was above 100 µM in each case.
On to `COc1ccc(-c2c[nH]c(=S)n2-c2ccc(OC)cc2)cc1`, for which the GI50 with SF-295 CNS, in the assay with OVCAR-3 ovarian, in the assay with SK-MEL-28 melanoma, in the assay on K-562 leukemia, with SF-539 CNS and with SK-MEL-2 melanoma was above 50 µM in each case. In addition, the TGI in the assay with SF-295 CNS, in the assay with OVCAR-3 ovarian, in the assay with SK-MEL-28 melanoma, in the assay on K-562 leukemia, in the assay on SF-539 CNS and in the assay with SK-MEL-2 melanoma was above 50 µM in each case.

The values are drawn from PubChem BioAssay (NCI).
